Laboratory results published in patent US12534729B2, “Uses of synthetic lethal partners for treatment of cancer” (Sanford Burnham Prebys Medical Discovery Institute, priority 2019, dated 2026).

Key:
[1] = test system: MaNRAS1 (1007) mouse melanoma cells; assay: Subcutaneous MaNRAS1 (1007) NRAS mutant melanoma model; assay type: in vivo, C57BL/6 mice; conditions: L-A′ase and PD-325901 dosed as in pancreatic study
Experimental: (§1) In Vivo Studies: All animal studies were conducted in the SBP Medical Discovery Institute Animal Facility in accordance with the Institutional Animal Care and Use Committee guidelines. 8-week-old males C57BL/6 mice were purchased from Jackson laboratories (Bar Harbor, ME) and allowed to acclimatize for 1 week. KRAS^LSLG12D/+. p53^R172H/+; PDX^Cretg/+ (KPC/B6) pancreatic cancer cells (1×10^6, suspended in 30 μl sterile PBS) were orthotopically injected into head of the pancreas. After one week, mice were randomized and sorted into treatment groups (n=8 animal/group). L-A′ase (60 IU/animal) was administered daily for five times a week for 3 weeks intraperitoneally. MEK inhibitor PD-325901 (4 mg/kg) in 0.5% (w/v) hydroxy-propyl-methylcellulose, 0.2% (v/v) Tween 80 (Sigma) was administered by oral gavage twice a week for 3 weeks. For in vivo melanoma study, 8-week-old male C57BL/6 mice were injected subcutaneously in the flank with 2×10^5 MaNRAS1 (1007) cells. When tumors reached ˜250 mm^3, mice were randomized and sorted into treatment groups (n=8 animal/group).
(§2) Mice were maintained in a pathogen-free environment with free access to food. Tumor volume was measured blinded twice a week. Tumor volume was measured with linear calipers and calculated using the formula: ([length in millimeters x (width in millimeters)2]/2). […]

[2] = test system: KRASLSLG12D/+; p53R172H/+; PDXCretg/+ (KPC/B6) pancreatic tumors; assay type: in vivo; conditions: same regimen
Experimental: as §1, §2

ATF4 mRNA in A375 cells = assay: Polysome profiling of ATF4 mRNA translation; assay type: cell-based, human; conditions: si-ASNS plus PLX-4032 500 nM, 48 hr
Experimental: Polysome Profiling: Polysome profiling was performed as described previously (Gandin et al., 2014). A375 cells were seeded at 30% confluency in a 15-cm Petri dish and transfected with NT-siRNA, si-ASNS, si-MNK1 (#1), or si-ASNS+si-MNK1 for 16 hr, using JetPrime transfection reagent (Polyplus) as per manufacturer's instruction. Post-transfection, cells were replenished with fresh media containing vehicle (DMSO) or 500 nM PLX-4032 (Selleckchem) for 48 hr treatment. […] Optical density values at 260 nm (OD260) were measured in each lysate and OD260 of ˜5 were then loaded in 5-50% sucrose gradients generated using Gradient Master (Biocomp, Fredericton, NB). […] Sucrose gradients were subjected to ultracentrifugation (SW41 Ti 11E1698 rotor; Beckman 39,000 RPM for 2 hr at 4° C.) and fractionated by displacement using 60% sucrose/0.01% bromophenol blue, on ISCO Foxy fraction collector (35 sec for each fraction ˜750 μL per fraction) equipped with an ultraviolet lamp for continuous absorbance monitoring at 254 nm. […] Relative change in the transcript levels in different pools was determined by the 2-ΔΔCT method, and shown as fold-change relative to mock-treated cells. β-Actin was used as an internal control.

[3] = test system: A375 and UACC-903 melanoma cells; assay: Cell proliferation (cell count) of melanoma lines; assay type: cell-based, human; conditions: PLX-4032 250 nM; for cell proliferation in combination with ASNS knockdown (si-ASNS): melanoma cells, ISRIB 200 nM
Experimental: siRNA Transfection: 1×10^5 cells were seeded overnight (O/N) per well in 6-well plates. Negative control (NT-siRNA) or si-RNA targeting the transcript of interest was transfected utilizing jetPRIME® transfection reagent, as per manufacturer's instructions (Polyplus, NY, USA). Following siRNAs were used: si-ASNS #1 (SASI_Hs02_00332309), si-ASNS #2 (SASI_Hs01_00116721), si-ASNS #3 (SASI_Hs01_00116722), si-ATF4 (SASI_Hs02_00332313), si-eIF4E (SASI_Hs01_00216117), si-BRAF (SASI_Hs01_00107705), si-GCN2 (SASI_Hs01_00097888), si-MNK #1 (SASI_Hs01_00228422), si-MNK1 #2 (SASI_Hs01_00228423), si-MNK1 #3 (SASI_Hs01_00228424), and the negative control si-RNA (NT-siRNA; SIC001) were purchased from Sigma-Aldrich.
Cell Proliferation: For cell proliferation, 0.3-0.5×10^5 cells were seeded O/N in triplicate in 6-well plate. Following treatment for the specified duration, cells were trypsinized and the cell count was determined with Neubauer hemocytometer (Celeromics, Cambridge, UK).

ERK1/2 = assay: Immunoblotting of phosphorylated MEK1/2 and ERK1/2 (MAPK signaling); assay type: cell-based, human; conditions: melanoma cells, 72 hr; gefitinib 1 μM, sunitinib 500 nM
Experimental: (§3) Immunoblotting: Total protein was extracted in Laemmli buffer, fractionated by SDS polyacrylamide gels and transferred to PVDF membranes (Millipore Sigma, MA, USA). After blocking with 5% non-fat dry milk (BD Biosciences, CA, USA), the membranes were incubated with primary antibodies overnight at 4° C. Afterwards, 2 hr incubation with HRP-conjugated secondary antibodies was performed. Following chemiluminescence reaction, the protein signal was visualized using the ChemiDoc imaging system (Bio-Rad, Hercules, CA) according to the manufacturer's instructions.

ATF4 = assay: Immunoblotting/qRT-PCR of ATF4 induction (GCN2-ATF4 axis) after ASNS knockdown; assay type: cell-based, human; conditions: for ATF4 induction following ASNS knockdown (immunoblot): melanoma cells, 72 hr, ISRIB 200 nM, eFT508 100 nM, sunitinib 500 nM
Experimental: as §3
qPCR Analysis: 1×10^5 cells were seeded O/N per well in 6-well plates. Following treatment for 48 hr, total RNA was extracted using RNeasy Mini Kit (Qiagen, Hilden, Germany). cDNA was synthesized using oligo(dT) and random primers (AB Bioscience, MA, USA), and qPCR analysis was performed with SYBR Green (Roche, NJ, USA). Primers were designed using the PrimerQuest tool (Integrated DNA Technologies, CA, USA) and Primer Bank Actin was used as an internal control.

## O=C(NOC[C@H](O)CO)c1ccc(F)c(F)c1Nc1ccc(I)cc1F [PD-325901]
[1]
  tumor growth (volume): only modest anti-tumor activity
[2]
  apoptosis (cleaved caspase-3): did not result in a significant increase in apoptosis

## CCCS(=O)(=O)Nc1ccc(F)c(C(=O)c2c[nH]c3ncc(-c4ccc(Cl)cc4)cc23)c1F [PLX-4032]
ATF4 mRNA in A375 cells
  translational efficiency of ATF4 mRNA (polysome distribution): attenuated increase in translational efficiency of ATF4 mRNA caused by ASNS depletion
[3]; BRAF mutant melanoma lines
  melanoma cell proliferation, drug alone: attenuated melanoma cell proliferation
[3]
  cell proliferation in combination with ASNS knockdown (si-ASNS): a more effective inhibition was seen upon its combination with ASNS knockdown

## COc1cc2ncnc(Nc3ccc(F)c(Cl)c3)c2cc1OCCCN1CCOCC1 [gefitinib]
ERK1/2
  MEK1/2 and ERK1/2 phosphorylation under ASNS knockdown: did not alter ERK1/2 activation under ASNS knockdown conditions

## CCC(=O)N1CCN(c2ccc(-n3c(=O)ccc4cnc5ccc(-c6cnc7ccccc7c6)cc5c43)cc2C(F)(F)F)CC1 [torin 1]
ATF4; melanoma and pancreatic cancer cell lines, rapamycin 100 nM, Torin 1 100 nM
  ATF4 induction and upregulation of ATF4 targets following ASNS knockdown: blocked both ATF4 induction and upregulation of ATF4 targets seen following ASNS knockdown

## O=C(COc1ccc(Cl)cc1)NC1CCC(NC(=O)COc2ccc(Cl)cc2)CC1 (stereo not shown) [ISRIB]
ATF4
  ATF4 induction following ASNS knockdown (immunoblot): suppression of ATF4 induction
[3]
  cell proliferation in combination with ASNS knockdown (si-ASNS): potentiated anti-proliferative effects of ASNS depletion in melanoma cells

## Cc1cc(Nc2cc(N)ncn2)c(=O)n2c1C(=O)NC21CCCCC1 [eFT508]
ATF4
  ATF4 induction following ASNS knockdown (immunoblot): did not antagonize ATF4 induction in response to ASNS suppression
